Laboratory results published in patent US6465522B1, “Anthraquinone anticancer drugs” (priority 1998, dated 2002).
Read-outs that look alike come from different tables or passages of the source.

Tests used:
Format in all cases: cell-based
2780AD = assay: MTT growth inhibition, 2780AD adriamycin (doxorubicin) resistant ovarian cancer cell line
Experimental: (§1) The cells used for the anticancer activity measurements were the parental ovarian cell line designated as A2780, the doxorubicin-resistant variant designated as 2780AD, and the cisplatin-resistant variant designated as 2780CP (also known as CP70). Drug sensitivity in these cell lines was measured by the standard MTT assay (Carmichael et al., 1987, Cancer Research, 47: 936) with a 24 hour drug exposure time. The values obtained are mean values of triplicate measurements.

A2780 = assay: MTT growth inhibition, A2780 parental ovarian cancer cell line; settings: MTT assay, 24 hour drug exposure, mean of triplicate, read-out: Growth Inhibition of Ovarian Cancer Cell Lines (IC50/nM) A2780
Experimental: as §1

2780CP = assay: MTT growth inhibition, 2780CP cisplatin resistant ovarian cancer cell line
Experimental: as §1

CH1cisR = assay: Antitumour activity in drug resistant ovarian cancer cell line CH1cisR
SKOV-3 = assay: Antitumour activity in drug resistant ovarian cancer cell line SKOV-3; settings: SKOV-3 drug resistant ovarian cancer cell line
[1] = 2780AD adriamycin resistant variant, MTT assay, 24 hour drug exposure, mean of triplicate, read-out: Growth Inhibition of Ovarian Cancer Cell Lines (IC50/nM) 2780AD
[2] = 2780CP cisplatin resistant variant, MTT assay, 24 hour drug exposure, mean of triplicate, read-out: Growth Inhibition of Ovarian Cancer Cell Lines (IC50/nM) 2780CP

Row | SMILES | IC50 (2780AD; [1]) [nM] | IC50 (A2780; Homo sapiens) [nM] | IC50 (2780CP; [2]) [nM] | IC50 (A2780) [nM] | IC50 (CH1cisR) [µM] | IC50 (SKOV-3) [µM] | IC50 (2780AD; 2780AD, read-out: IC50 2780AD) [nM] | IC50 (2780CP; 2780CP, read-out: IC50 2780CP) [nM]
1 | COc1cccc2c1C(=O)c1c(O)c3c(c(O)c1C2=O)C[C@@](O)(C(=O)CO)C[C@@H]3O[C@H]1C[C@H](N)[C@H](O)[C@H](C)O1 [Adriamycin, adriamycin] | 4860 ± 510 | 5 ± 1.1 | 13.3 ± 0.9 | – | – | – | – | –
2 | N.N.[Cl][Pt][Cl] [Cisplatin, cisplatin] | 3020 ± 220 | – | 2620 ± 730 | 340 ± 60 | – | – | – | –
3 | CN(C)CCNc1ccc(NCCN(CCCl)CCCl)c2c1C(=O)c1c(O)ccc(O)c1C2=O [Compound (2)] | – | – | 11.8 ± 1.4 | 4 ± 0.6 | 0.019 | 0.49 | 16 | 12
